In patent publication US20240208895A1, “BRANCHED-CHAIN AMINO ACID DERIVATIVES TO TREAT DISEASE” (INTRABIO LTD., priority 2021, published 2024):

Key:
[1] = target: T1, monocarboxylate transporter (MCT1) (Homo sapiens, UniProt P53985); conditions: read-out: Km, uptake by MCT1; uptake 1 min, room temperature
T1 sequence (P53985 1-500): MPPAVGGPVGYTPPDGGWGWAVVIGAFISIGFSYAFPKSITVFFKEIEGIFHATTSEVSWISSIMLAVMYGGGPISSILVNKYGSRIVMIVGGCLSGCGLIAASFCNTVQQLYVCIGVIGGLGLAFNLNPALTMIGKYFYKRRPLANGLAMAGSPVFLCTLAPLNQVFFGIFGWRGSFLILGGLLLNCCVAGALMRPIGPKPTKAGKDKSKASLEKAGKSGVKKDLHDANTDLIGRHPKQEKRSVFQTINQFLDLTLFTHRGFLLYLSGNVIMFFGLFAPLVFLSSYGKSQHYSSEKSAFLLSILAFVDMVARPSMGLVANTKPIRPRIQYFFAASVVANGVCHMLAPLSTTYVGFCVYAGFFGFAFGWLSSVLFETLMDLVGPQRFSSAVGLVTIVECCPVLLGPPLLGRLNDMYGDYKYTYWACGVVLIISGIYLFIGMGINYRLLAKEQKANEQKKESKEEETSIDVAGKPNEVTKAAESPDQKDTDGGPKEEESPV
Protocol: The known probe substrates used as positive controls are 3 μM chlorothiazide for OAT1, 2 μM estrone-3-sulfate for OAT3, 10 μM gabapentin for LAT1, 50 μM Gly-Sar for PepT1, 500 μM thiophene-2-glyoxylic acid for MCT1.
Enzyme kinetic data for uptake and metabolism of a Compound of the Disclosure is analysed by fitting the Michaelis-Menten equation to the data. V0=Vmax[S]/Km+[S], where V0 is initial velocity, [S] is substrate concentration, Vmax is maximum velocity and Km is substrate concentration at half Vmax. All fitting is performed using GraphPad Prism 8.4 software (GraphPad Software Inc). No weighting scheme is applied.

OAT1 (SLC22A6) = target: T2, OAT1 (SLC22A6) (Homo sapiens, UniProt Q4U2R8); assay: OAT1 transporter-mediated cellular uptake (substrate test); assay type: cell-based; conditions: uptake 5 min, 37° C.
T2 construct: host or cells: HEK-293
T2 sequence (Q4U2R8 1-563): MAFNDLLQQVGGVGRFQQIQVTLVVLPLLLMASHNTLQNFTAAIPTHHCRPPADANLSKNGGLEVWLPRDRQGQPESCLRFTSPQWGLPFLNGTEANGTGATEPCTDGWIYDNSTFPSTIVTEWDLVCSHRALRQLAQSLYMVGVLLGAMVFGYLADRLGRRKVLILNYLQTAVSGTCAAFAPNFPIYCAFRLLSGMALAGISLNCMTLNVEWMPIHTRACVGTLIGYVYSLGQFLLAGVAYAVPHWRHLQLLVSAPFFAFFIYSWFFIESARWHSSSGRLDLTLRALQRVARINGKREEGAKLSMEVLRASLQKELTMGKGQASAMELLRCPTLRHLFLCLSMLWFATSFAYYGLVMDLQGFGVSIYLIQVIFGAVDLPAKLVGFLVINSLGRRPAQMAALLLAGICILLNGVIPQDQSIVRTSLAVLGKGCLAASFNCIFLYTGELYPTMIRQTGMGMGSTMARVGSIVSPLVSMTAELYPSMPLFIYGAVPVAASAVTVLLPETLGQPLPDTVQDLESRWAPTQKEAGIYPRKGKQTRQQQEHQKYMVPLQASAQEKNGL
Protocol: (§1) DMSO (0.5%) was the solvent control (SC) and the known inhibitor diclofenac (100 μM) was the positive control (PC). Data were fit to either the Michalis-Menten equation for uptake or the Hill equation for inhibition using the solvent control to define the top and the positive control inhibitor to define the bottom. Symbols represent the mean±SEM, n=3.
(§2) Human OAT1 (SLC22A6) and OAT3 (SLC22A8) overexpressing HEK-293 cells and control cells without transfected transporter (Corning® TransportoCells™) are plated to 24-well plates and cellular uptake of 10 to 100 μg/mL of a Compound of the Disclosure is measured in the absence and presence of transporter inhibitors. Uptake of a Compound of the Disclosure into control cells is measured only without chemical inhibitors. […] Cells are grown in DMEM (Gibco 4196, high glucose, without sodium pyruvate) supplemented with MEM non-essential amino acids and 10% fetal bovine serum. Cells are re-fed with fresh medium after attachment (4-6 hours post-seeding). Cell are plated at a density of 4×10^5/well in 24-well plates coated with poly-D-lysine. Transporter assays are conducted in 400 μL of HBSS supplemented with 10 mM Hepes, pH 7.4 […]
(§3) Enzyme kinetic data for uptake and metabolism of a Compound of the Disclosure is analysed by fitting the Michaelis-Menten equation to the data. […]

OAT3 (SLC22A8) [2] = target: T3, OAT3 (SLC22A8) (Homo sapiens, UniProt Q8TCC7); assay: OAT3 transporter-mediated cellular uptake (substrate test); assay type: cell-based; conditions: uptake 5 min, 37° C.
T3 construct: host or cells: HEK-293
T3 sequence (Q8TCC7 1-542): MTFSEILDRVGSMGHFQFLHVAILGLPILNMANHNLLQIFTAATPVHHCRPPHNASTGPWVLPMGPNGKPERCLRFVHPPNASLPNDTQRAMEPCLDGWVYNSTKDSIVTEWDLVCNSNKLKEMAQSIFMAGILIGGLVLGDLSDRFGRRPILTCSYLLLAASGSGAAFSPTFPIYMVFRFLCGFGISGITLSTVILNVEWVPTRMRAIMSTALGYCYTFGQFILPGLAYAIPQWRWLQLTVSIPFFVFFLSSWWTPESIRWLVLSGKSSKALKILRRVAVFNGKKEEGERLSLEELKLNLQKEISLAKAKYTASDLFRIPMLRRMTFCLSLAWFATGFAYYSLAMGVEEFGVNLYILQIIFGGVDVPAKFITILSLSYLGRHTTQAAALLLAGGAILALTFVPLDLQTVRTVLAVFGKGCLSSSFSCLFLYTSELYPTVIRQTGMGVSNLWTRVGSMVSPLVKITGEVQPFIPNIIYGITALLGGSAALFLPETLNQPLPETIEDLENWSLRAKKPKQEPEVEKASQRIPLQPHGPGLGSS
Protocol: as §1, §2, §3

physchem = assay type: physicochemical
Description: The physiochemical parameters of L-leucine were compared with N-acetyl-L-leucine. […] Log P is the octanol:water partition coefficient for the neutral form of a compound. In contrast, log D considers the ionization state of a molecule in aqueous (biological) solution resulting from basic groups gaining a proton and acidic groups losing a proton, and as such is better correlated with passive diffusion across membranes.

OAT3 (SLC22A8) [3] = target: T3, OAT3 (SLC22A8); assay: Inhibition of OAT3 uptake of known substrate estrone-3-sulfate; assay type: cell-based; conditions: probe substrate estrone-3-sulfate 2 μM
Protocol: as §1, §2
The IC50 value for the test item is determined by fitting the Hill equation in the following form: […]

Km [1]: 3000 µM | substrate of OAT1 (uptake) (OAT1 (SLC22A6)): substrate | substrate of OAT3 (uptake) (OAT3 (SLC22A8) [2]): substrate | logD (physchem): -2.54 | IC50 (OAT3 (SLC22A8) [3]): 700 µM
SMILES: CC(=O)N[C@@H](CC(C)C)C(=O)O [N-acetyl-L-leucine]
